US20110237607A1, “SUBSTITUTED PURINYL-PYRAZOL DERIVATIVES AND THEIR USE AS POTASSIUM CHANNEL MODULATORS” (NEUROSEARCH A/S, priority 2008, published 2011)

Biological target: T1, hSK3 channels (Homo sapiens, UniProt Q9UGI6)
T1 construct: expressed in transfected cells; host or cells: HEK293
Assay: Whole-cell patch-clamp recording of SK3 current in HEK293 cells expressing hSK3 channels
Format: cell-based
Description: The ionic current through small-conductance Ca^2+-activated K^+ channels (SK channels, subtype 3) is recorded using the whole-cell configuration of the patch-clamp technique in a classic patch-clamp set-up using HEK293 tissue culture cells expressing hSK3 channels as described in e.g. WO 2006/100212.
The SC100 value determined is defined as the Stimulating Concentration required for increasing the baseline current by 100%. The below SC100 values are an indication of the SK3 activating properties of the compounds of the invention.

Structure (SMILES)	SC100 (Stimulating Concentration required for increasing the baseline current by 100%)
Cc1cc(C)n(-c2nc(NC3Cc4ccccc4C3)c3ncn(C)c3n2)n1 [Compound 5.1, [2-(3,5-Dimethyl-pyrazol-1-yl)-9-methyl-9H-purin-6-yl]-indan-2-yl-amine]	0.04 µM
Cc1ccn(-c2nc(NC3Cc4ccccc4C3)c3ncn(C)c3n2)n1 [Compound 5.2, Indan-2-yl-[9-methyl-2-(3-methyl-pyrazol-1-yl)-9H-purin-6-yl]-amine]	0.10 µM
